# Test results published in ChEMBL document CHEMBL3885861, “Open TG-GATES”.
# Species on record: Rattus norvegicus
# Experiment: Open TG-GATES - Regimen: Single
# Assay type: toxicity, organism-based, Sprague-Dawley
# Parameters: regimen Single, gender Male, age 6 weeks
# Details: in vivo, po, 30 mg/kg, route gavage, dose level Low; for APTT / Bas / Eos / Fbg / Hb / Ht / Lym / MCH / MCHC / MCV / Mono / Neu / PT / Plat / RBC / Ret / WBC: tissue Blood; for KIDNEY_L / KIDNEY_R / KIDNEY_TOTAL: tissue Kidney; for LIVER: tissue Liver; for A/G / ALP / ALT / AST / BUN / CRE / Ca / Cl / DBIL / GLC / IP / K / LDH / Na / PL / RALB / TBIL / TC / TG / TP / gamma-GTP: tissue Plasma
structure (smiles),measurement,setting,value
CC[C@H]1[C@@H]2C[C@H]3[C@@H]4N(C)c5ccccc5[C@]45C[C@@H]([C@@H]2[C@H]5O)N3[C@@H]1O [AJMALINE],TERMINAL_BW,3 h,194.7 g
same,APTT,3 h,16.9 s
same,Bas,3 h,0%
same,Eos,3 h,1%
same,Fbg,3 h,196.4 mg/dL
same,Hb,3 h,12.8 g/dL
same,Ht,3 h,39.1%
same,Lym,3 h,78.6%
same,MCH,3 h,21.7 pg
same,MCHC,3 h,32.8%
same,MCV,3 h,66.3 fL
same,Mono,3 h,8.8%
same,Neu,3 h,12%
same,PT,3 h,11.6 s
same,Plat,3 h,121.5 x10_4/uL
same,RBC,3 h,590.6 x10_4/ul
same,Ret,3 h,12.4%
same,WBC,3 h,114.3 x10_2/uL
same,KIDNEY_L,3 h,0.9 g
same,KIDNEY_R,3 h,0.9 g
same,KIDNEY_TOTAL,3 h,1.8 g
same,LIVER,3 h,9.1 g
same,A/G,3 h,2.3
same,ALP,3 h,821 IU/L
same,ALT,3 h,34.8 IU/L
same,AST,3 h,69.8 IU/L
same,BUN,3 h,12.2 mg/dL
same,CRE,3 h,0.4 mg/dL
same,Ca,3 h,11.3 mg/dL
same,Cl,3 h,102.4 meq/L
same,DBIL,3 h,0.052 mg/dL
same,GLC,3 h,193.6 mg/dL
same,IP,3 h,9 mg/dL
same,K,3 h,4.5 meq/L
same,LDH,3 h,108 IU/L
same,Na,3 h,137.8 meq/L
same,PL,3 h,141.6 mg/dL
same,RALB,3 h,3.7 g/dL
same,TBIL,3 h,0.4 mg/dL
same,TC,3 h,77.4 mg/dL
same,TG,3 h,55.8 mg/dL
same,TP,3 h,5.3 g/dL
same,gamma-GTP,3 h,1.6 IU/L
same,TERMINAL_BW,6 h,190.9 g
same,APTT,6 h,17.2 s
same,Bas,6 h,0%
same,Eos,6 h,1.2%
same,Fbg,6 h,205 mg/dL
same,Hb,6 h,12.8 g/dL
same,Ht,6 h,38.9%
same,Lym,6 h,74%
same,MCH,6 h,22.2 pg
same,MCHC,6 h,33%
same,MCV,6 h,67.2 fL
same,Mono,6 h,7%
same,Neu,6 h,18.2%
same,PT,6 h,11.8 s
same,Plat,6 h,114.2 x10_4/uL
same,RBC,6 h,578.4 x10_4/ul
same,Ret,6 h,11.9%
same,WBC,6 h,89.1 x10_2/uL
same,KIDNEY_L,6 h,0.9 g
same,KIDNEY_R,6 h,0.9 g
same,KIDNEY_TOTAL,6 h,1.8 g
same,LIVER,6 h,8.4 g
same,A/G,6 h,2
same,ALP,6 h,865.4 IU/L
same,ALT,6 h,40.6 IU/L
same,AST,6 h,70 IU/L
same,BUN,6 h,9 mg/dL
same,CRE,6 h,0.5 mg/dL
same,Ca,6 h,10.8 mg/dL
same,Cl,6 h,102.6 meq/L
same,DBIL,6 h,0.068 mg/dL
same,GLC,6 h,195.8 mg/dL
same,IP,6 h,9.7 mg/dL
same,K,6 h,4.6 meq/L
same,LDH,6 h,104.8 IU/L
same,Na,6 h,138.8 meq/L
same,PL,6 h,141.4 mg/dL
same,RALB,6 h,3.5 g/dL
same,TBIL,6 h,0.4 mg/dL
same,TC,6 h,82.8 mg/dL
same,TG,6 h,46.8 mg/dL
same,TP,6 h,5.3 g/dL
same,gamma-GTP,6 h,1.6 IU/L
same,TERMINAL_BW,9 h,190.6 g
same,APTT,9 h,17.1 s
same,Bas,9 h,0%
same,Eos,9 h,1%
same,Fbg,9 h,201.2 mg/dL
same,Hb,9 h,12.6 g/dL
same,Ht,9 h,38.1%
same,Lym,9 h,70.4%
same,MCH,9 h,21.6 pg
same,MCHC,9 h,33%
same,MCV,9 h,65.6 fL
same,Mono,9 h,8%
same,Neu,9 h,21%
same,PT,9 h,12.1 s
same,Plat,9 h,119.4 x10_4/uL
same,RBC,9 h,580.8 x10_4/ul
same,Ret,9 h,10.6%
same,WBC,9 h,83.7 x10_2/uL
same,KIDNEY_L,9 h,0.9 g
same,KIDNEY_R,9 h,0.9 g
same,KIDNEY_TOTAL,9 h,1.8 g
same,LIVER,9 h,8.1 g
same,A/G,9 h,2.2
same,ALP,9 h,827.2 IU/L
same,ALT,9 h,34.6 IU/L
same,AST,9 h,64.6 IU/L
same,BUN,9 h,12.2 mg/dL
same,CRE,9 h,0.6 mg/dL
same,Ca,9 h,10.4 mg/dL
same,Cl,9 h,104.8 meq/L
same,DBIL,9 h,0.1 mg/dL
same,GLC,9 h,199.2 mg/dL
same,IP,9 h,10.3 mg/dL
same,K,9 h,5 meq/L
same,LDH,9 h,108.2 IU/L
same,Na,9 h,139 meq/L
same,PL,9 h,132 mg/dL
same,RALB,9 h,3.6 g/dL
same,TBIL,9 h,0.4 mg/dL
same,TC,9 h,82.2 mg/dL
same,TG,9 h,48.4 mg/dL
same,TP,9 h,5.2 g/dL
same,gamma-GTP,9 h,0.8 IU/L
same,TERMINAL_BW,24 h,210.7 g
same,APTT,24 h,16.3 s
same,Bas,24 h,0%
same,Eos,24 h,1%
same,Fbg,24 h,225 mg/dL
same,Hb,24 h,12.8 g/dL
same,Ht,24 h,38.6%
same,Lym,24 h,75.8%
same,MCH,24 h,21.7 pg
same,MCHC,24 h,33.2%
same,MCV,24 h,65.3 fL
same,Mono,24 h,7.6%
same,Neu,24 h,15.2%
same,PT,24 h,11.5 s
same,Plat,24 h,112.6 x10_4/uL
same,RBC,24 h,590.8 x10_4/ul
same,Ret,24 h,10.5%
same,WBC,24 h,105.8 x10_2/uL
same,KIDNEY_L,24 h,1 g
same,KIDNEY_R,24 h,1 g
same,KIDNEY_TOTAL,24 h,2 g
same,LIVER,24 h,10.6 g
same,A/G,24 h,2.1
same,ALP,24 h,875.4 IU/L
same,ALT,24 h,36.8 IU/L
same,AST,24 h,66.2 IU/L
same,BUN,24 h,15.8 mg/dL
same,CRE,24 h,0.6 mg/dL
same,Ca,24 h,11.2 mg/dL
same,Cl,24 h,100.8 meq/L
same,DBIL,24 h,0.016 mg/dL
same,GLC,24 h,207.6 mg/dL
same,IP,24 h,8.4 mg/dL
same,K,24 h,4.5 meq/L
same,LDH,24 h,120.6 IU/L
same,Na,24 h,140 meq/L
same,PL,24 h,156.4 mg/dL
same,RALB,24 h,3.8 g/dL
same,TBIL,24 h,0.3 mg/dL
same,TC,24 h,86.4 mg/dL
same,TG,24 h,114.4 mg/dL
same,TP,24 h,5.6 g/dL
same,gamma-GTP,24 h,1.4 IU/L
